Tested on: 317291-083-R-J1-PDC complex spheroids, viability
Experiment: Anticancer human tumor 317291-083-R-J1-PDC patient-derived soft tissue sarcoma cell line growth inhibition [GQUAD]
Conditions: for IC50: curve of first compound; for viability, T/C: stronger effect = lower value
Source text: DNA G-quadruplex Stabilizer Agents in Combinations in Complex Spheroids
A high-throughput screen of multi-cell type tumor spheroids was designed to identify active combinations of DNA G-quadruplex stabilizer agents and targeted small molecules. Complex spheroids include a stromal component modeled by human endothelial cells (HUVEC) and fibroblasts modeled by human mesenchymal stem cells (MSCs). The concentration ranges selected for each drug and investigational agent were based upon clinically achievable concentrations if the clinical Cmax of the agent was known.
Compounds. The drugs and investigational agents: pidnarulex (CX-5461; NSC782164), APTO-253 (NSC789042), BRACO-19 (NSC847499), peposertib (NSC802822), ceralasertib (NSC780249), elimusertib (NSC800525), camonsertib (NSC841442), AZD-1390 (NSC803789), olaparib (NSC753686), talazoparib (NSC767125), ART-558 (NSC835418), sotorasib (NSC818433), MRTX-1133 (NSC836407), SN-38 (NSC673596), topotecan (NSC609699), etoposide (NSC141540), doxorubicin (NSC123127), gemcitabine (NSC613327), 5-fluorouracil (NSC19893), paclitaxel (NSC125973), vemurafenib (NSC761431), panobinostat (NSC761190), R-306465 (JNJ-16241199; NSC773264), adavosertib (NSC754352), TP-3654 (NSC805149), carboplatin (NSC241240), KSQ-4279 (NSC840948), and staurosporine (NSC755774) were obtained from the National Cancer Institute (NCI) Developmental Therapeutics Program Chemical Repository (34). The FDA-approved anticancer drug set is available from the NCI Developmental Therapeutics Program. […] The stock solutions were prepared in dimethyl sulfoxide (DMSO, Sigma-Aldrich, St. Louis, MO, cat. D2650) at 800-fold the tested concentration and stored at -70 degrees C prior to their use. All drugs and investigational agents were tested over a range starting from a high concentration at or near the clinical Cmax and decreasing in half-log increments. If the clinical Cmax for an agent had not been determined, the highest concentration tested was 10 microM.
2.3 Cell Culture. All cells were maintained in an incubator at 37 degrees C and 5% CO2 with 95% humidity. The PDC lines were cultured according to standard operating procedures established by the NCI PDMR. All PDCs were thawed and cultured in Matrigel-coated flasks prepared with a working solution of 1X Ham's F-12 nutrient mix, without supplementation (Invitrogen, cat. 11765054), 100 U/mL penicillin-streptomycin (Invitrogen, cat. 15140122), and 2.5% Matrigel (Corning Inc., cat. 354248) for the first three passages. The 857933-349-R-J2-PDC line was cultured in 6C/Colon 1B media, which includes advanced DMEM/F-12 (Thermo Fisher Scientific, cat. 12634028), 10 mM HEPES (Thermo Fisher Scientific, cat. 15630080), 1X GlutaMAX supplement (Thermo Fisher Scientific, cat. 35050061), 0.1 mg/mL primocin (InvivoGen, cat. ant-pm-2), 10% defined fetal bovine serum, heat inactivated (HyClone Laboratories Inc., cat. SH30070.03HI), 50% L-WRN conditioned media (ATCC, cat. CRL-3276), 1.25 mM N-Acetyl-L-cysteine (Sigma-Aldrich, cat. A9165), 10 mM nicotinamide (Sigma-Aldrich, cat. N0636), 1X B-27 supplement (Thermo Fisher Scientific, cat. 17504044), 1X N-2 supplement (Thermo Fisher Scientific, cat. 17502048), 10 microM Y-27632 dihydrochloride (Tocris Bioscience, cat. 1254), and 50 ng/mL human EGF recombinant protein (Thermo Fisher Scientific, cat. PHG0311). The 485176-168-R4-J1-PDC line was cultured in Panc media, which includes all 6C/Colon 1B media components plus 100 ng/mL human FGF-10 (Thermo Fisher Scientific, cat. 100-26), 500 nM SB-431542 (Selleckchem, cat. S1067), and gastrin (Tocris, cat. 3006).
[…]

[1] = second compound 0.0316 µM, first compound 0.000999 µM
[2] = second compound 0.0316 µM, first compound 0.00316 µM
[3] = second compound 0.0316 µM, first compound 0.00999 µM
[4] = second compound 0.0316 µM, first compound 0.0316 µM
[5] = second compound 0.0316 µM, first compound 0.0999 µM
[6] = second compound 0.0316 µM, first compound 0.316 µM
[7] = second compound 0.1 µM, first compound 0.000999 µM
[8] = second compound 0.1 µM, first compound 0.00316 µM
[9] = second compound 0.1 µM, first compound 0.00999 µM
[10] = second compound 0.1 µM, first compound 0.0316 µM
[11] = second compound 0.1 µM, first compound 0.0999 µM
[12] = second compound 0.1 µM, first compound 0.316 µM
[13] = second compound 0.316 µM, first compound 0.000999 µM
[14] = second compound 0.316 µM, first compound 0.00316 µM
[15] = second compound 0.316 µM, first compound 0.00999 µM
[16] = second compound 0.316 µM, first compound 0.0316 µM
[17] = second compound 0.316 µM, first compound 0.0999 µM
[18] = second compound 0.316 µM, first compound 0.316 µM
[19] = second compound 1 µM, first compound 0.000999 µM
[20] = second compound 1 µM, first compound 0.00316 µM
[21] = second compound 1 µM, first compound 0.00999 µM
[22] = second compound 1 µM, first compound 0.0316 µM
[23] = second compound 1 µM, first compound 0.0999 µM
[24] = second compound 1 µM, first compound 0.316 µM
[25] = second compound 3.16 µM, first compound 0.000999 µM
[26] = second compound 3.16 µM, first compound 0.00316 µM
[27] = second compound 3.16 µM, first compound 0.00999 µM
[28] = second compound 3.16 µM, first compound 0.0316 µM
[29] = second compound 3.16 µM, first compound 0.0999 µM
[30] = second compound 3.16 µM, first compound 0.316 µM
[31] = second compound 10 µM, first compound 0.000999 µM
[32] = second compound 10 µM, first compound 0.00316 µM
[33] = second compound 10 µM, first compound 0.00999 µM
[34] = second compound 10 µM, first compound 0.0316 µM
[35] = second compound 10 µM, first compound 0.0999 µM
[36] = second compound 10 µM, first compound 0.316 µM
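Note: spheroids exposed to compounds for one week before readout.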
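Throughout, for viability, T/C: percent viability relative to DMSO vehicle wells taken as 100%.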

In the case of CC[C@@]1(O)C(=O)OCc2c1cc1n(c2=O)Cc2cc3c(CN(C)C)c(O)ccc3nc2-1 + CN(C)c1ccc(Nc2c3ccc(NC(=O)CCN4CCCC4)cc3nc3cc(NC(=O)CCN4CCCC4)ccc23)cc1, the IC50 (second compound 0.0316 µM) is reported as 54.9 nM, the IC50 (second compound 0.1 µM) is reported as 50.5 nM and the IC50 (second compound 0.316 µM) is reported as 25.9 nM. It also gave an IC50 (second compound 1 µM) of under 0.999 nM, an IC50 (second compound 3.16 µM) of under 0.999 nM and an IC50 (second compound 10 µM) of under 0.999 nM. It also gave a viability, T/C [1] of 99.5%, a viability, T/C [2] of 98.3% and a viability, T/C [3] of 109%. For the same compound, the viability, T/C [4] was 70.3%, the viability, T/C [5] was 29% and the viability, T/C [6] was 16.7%. It also gave a viability, T/C [7] of 95%, a viability, T/C [8] of 85.4% and a viability, T/C [9] of 94%. The viability, T/C [10] was 65.5%, the viability, T/C [11] was 26.9% and the viability, T/C [12] was 15.9%. It also gave a viability, T/C [13] of 79.8%, a viability, T/C [14] of 90.8% and a viability, T/C [15] of 74.7%. For the same compound, the viability, T/C [16] was 42.6%, the viability, T/C [17] was 28.9% and the viability, T/C [18] was 14.9%. The viability, T/C [19] was 49%, the viability, T/C [20] was 42.6% and the viability, T/C [21] was 48.5%. For the same compound, the viability, T/C [22] was 36.7%, the viability, T/C [23] was 18.1% and the viability, T/C [24] was 9.13%. For the same compound, the viability, T/C [25] was 28.4%, the viability, T/C [26] was 24.1% and the viability, T/C [27] was 22.8%. The viability, T/C [28] was 15.4%, the viability, T/C [29] was 11.5% and the viability, T/C [30] was 9.22%. The viability, T/C [31] was 9.99%, the viability, T/C [32] was 16.1% and the viability, T/C [33] was 5.13%. The viability, T/C [34] was 5.79%, the viability, T/C [35] was 8.35% and the viability, T/C [36] was 4.27%.

In the case of CCc1c2c(nc3ccc(O)cc13)-c1cc3c(c(=O)n1C2)COC(=O)[C@]3(O)CC + CN(C)c1ccc(Nc2c3ccc(NC(=O)CCN4CCCC4)cc3nc3cc(NC(=O)CCN4CCCC4)ccc23)cc1, the IC50 (second compound 0.0316 µM) is reported as 1.31 nM, the IC50 (second compound 0.1 µM) is reported as 1.65 nM and the IC50 (second compound 0.316 µM) is reported as under 0.999 nM. The IC50 (second compound 1 µM) was under 0.999 nM, the IC50 (second compound 3.16 µM) was under 0.999 nM and the IC50 (second compound 10 µM) was under 0.999 nM. It also gave a viability, T/C [1] of 58%, a viability, T/C [2] of 24.2% and a viability, T/C [3] of 15.7%. The viability, T/C [4] was 10.1%, the viability, T/C [5] was 7.96% and the viability, T/C [6] was 5.2%. It also gave a viability, T/C [7] of 65.8%, a viability, T/C [8] of 28.6% and a viability, T/C [9] of 17.5%. It also gave a viability, T/C [10] of 10.9%, a viability, T/C [11] of 9.19% and a viability, T/C [12] of 5.38%. For the same compound, the viability, T/C [13] was 48.7%, the viability, T/C [14] was 24.2% and the viability, T/C [15] was 15.5%. The viability, T/C [16] was 13.7%, the viability, T/C [17] was 8.7% and the viability, T/C [18] was 5.23%. It also gave a viability, T/C [19] of 28.4%, a viability, T/C [20] of 15.4% and a viability, T/C [21] of 10.4%. The viability, T/C [22] was 5.97%, the viability, T/C [23] was 7.46% and the viability, T/C [24] was 3.88%. The viability, T/C [25] was 20.7%, the viability, T/C [26] was 9.56% and the viability, T/C [27] was 7.45%. It also gave a viability, T/C [28] of 4.96%, a viability, T/C [29] of 4.76% and a viability, T/C [30] of 2.38%. The viability, T/C [31] was 8.21%, the viability, T/C [32] was 7.57% and the viability, T/C [33] was 4.2%. The viability, T/C [34] was 2.29%, the viability, T/C [35] was 2.45% and the viability, T/C [36] was 2.41%.
